According to patent publication US12209079B2 (GENERAL INCORPORATED ASSOCIATION PHARMA VALLEY PROJECT …, priority 2017, dated 2025):

Assays:
Type in all cases: in vivo, mouse
[1] = system: subcutaneous CT-26CL25 syngeneic graft of large intestine cancer; test: Drug efficacy test, combined use of compound 1 and oxaliplatin, mice with subcutaneous CT-26CL25 syngeneic graft (Test Example 3); settings: 40 mg/kg oral twice a day, combined with oxaliplatin 10 mg/kg i.v.; Balb/c mice; FIG. 2
Method: Drug Efficacy Test on Combined Use of Compound 1 and Oxaliplatin Using Mice with Subcutaneous CT-26CL25 Syngeneic Graft of Large Intestine Cancer
5×10^5 cells of syngeneic large intestine cancer cell line CT26CL25 were subcutaneously transplanted to each of 8-week-old female Balb/c mice. The mice were divided into 4 groups each involving 8 individuals 10 days later when the average tumor size was 185 mm^3. The oral administration (solvent for oral administration and 40 mg/kg compound 1 were administered twice a day at a 5-hour interval from days 1 to 5 and days 8 to 12) and intravenous administration (5% glucose solution and 10 mg/kg oxaliplatin were administered once a day on days 1 and 8) of each agent were started. Then, the major axis and minor axis of subcutaneous tumor were measured three times a week using calipers, and a mean and standard error of the mean of the ratios of the calculated volumes to the volumes at the administration start day in each group were plotted. The calculation expression was Volume (mm^3)=[Width^2 (mm^2)×Length (mm)]/2. Compound 1 was dissolved in a solvent for oral administration of DMSO:PEG400:PBS=5:20:75.
∘: the solvent for oral administration and the 5% glucose solution, •: the solvent for oral administration and oxaliplatin, Δ: compound 1 and the 5% glucose solution, and ▴: compound 1 and oxaliplatin.

[2] = system: subcutaneous CT-26WT syngeneic graft of large intestine cancer; test: Drug efficacy test, combined use with anti-PD-1 antibody, mice with subcutaneous CT-26WT syngeneic graft (Test Example 2); settings: 40 mg/kg oral twice a day, combined with anti-PD-1 antibody 200 μg/individual i.p.; Balb/c mice; FIG. 1
Method: Drug Efficacy Test on Combined Use of IDO/TDO Inhibitor and Anti-PD-1 Antibody Using Mice with Subcutaneous CT-26WT Syngeneic Graft of Large Intestine Cancer
5×10^5 cells of syngeneic large intestine cancer cell line CT26WT were subcutaneously transplanted to each of 6-week-old female Balb/c mice. The mice were divided into 6 groups each involving 6 to 8 individuals 11 days later when the average tumor size was 212 mm^3. The oral administration (solvent for oral administration and 40 mg/kg each of epacadostat and compound 1 were administered twice a day at a 5-hour interval from days 1 to 5, days 8 to 12, and days 15 to 19) and intraperitoneal administration (PBS and 200 μg/individual of an anti-PD1 antibody were administered once a day on days 1, 4, 8, 11, 15, and 18) of each agent were started. Then, the major axis and minor axis of subcutaneous tumor were measured three times a week using calipers, and a mean and standard error of the mean of the calculated volumes in each group were plotted. The calculation expression was Volume (mm^3)=[Width^2 (mm^2)×Length (mm)]/2. The oral administration agent was dissolved in a solvent for oral administration of DMSO:PEG400:PBS=5:20:75. […]

[3] = system: subcutaneous CT-26WT syngeneic graft of large intestine cancer; test: Drug efficacy test, combined use of compound 29 or 38 and anti-PD1 antibody, mice with subcutaneous CT-26WT syngeneic graft (Test Example 6); settings: 40 mg/kg oral twice a day, combined with anti-PD1 antibody 200 μg/individual i.p.; Balb/c mice; FIG. 5
Method: Drug Efficacy Test on Combined Use of Compound 29 or 38 and Anti-PD1 Antibody Using Mice with Subcutaneous CT-26WT Syngeneic Graft of Large Intestine Cancer
5×10^5 cells of syngeneic large intestine cancer cell line CT26WT were subcutaneously transplanted to each of 6-week-old female Balb/c mice. The mice were divided into 6 groups each involving 6 individuals 10 days later when the average tumor size was 250 mm^3. The oral administration (solvent for oral administration and 40 mg/kg each of compounds 29 and 38 were administered twice a day at a 5-hour interval from days 1 to 5 and days 8 to 12) and intraperitoneal administration (PBS and 200 μg/individual of an anti-PD1 antibody were administered once a day on days 1 and 8) of each agent were started. Then, the major axis and minor axis of subcutaneous tumor were measured three times a week using calipers, and a mean and standard error of the mean of the calculated volumes in each group were plotted. The calculation expression was Volume (mm^3)=[[…]×Length (mm)]/2. Compound 29 or 38 was suspended in 0.5% methyl cellulose as a solvent for oral administration. […]

[4] = system: subcutaneous CT-26WT syngeneic graft of large intestine cancer; test: Drug efficacy test, combined use of compound 103 and anti-PD1 antibody, mice with subcutaneous CT-26WT syngeneic graft (Test Example 7); settings: 40 mg/kg oral twice a day, combined with anti-PD1 antibody 200 μg/individual i.p.; Balb/c mice; FIG. 6
Method: Drug Efficacy Test on Combined Use of Compound 103 and Anti-PD1 Antibody Using Mice with Subcutaneous CT-26WT Syngeneic Graft of Large Intestine Cancer
5×10^5 cells of syngeneic large intestine cancer cell line CT26WT were subcutaneously transplanted to each of 6-week-old female Balb/c mice. The mice were divided into 3 groups each involving 8 individuals 10 days later when the average tumor size was 176 mm^3. The oral administration (40 mg/kg of compound 103 was administered twice a day at a 5-hour interval from days 1 to 5 and days 8 to 12), intravenous administration (5% glucose solution was administered once a day on days 1 and 8) and intraperitoneal administration (PBS and 200 μg/individual of an anti-PD1 antibody were administered once a day on days 1 and 8) of each agent were started. Then, the major axis and minor axis of subcutaneous tumor were measured three times a week using calipers, and a mean and standard error of the mean of the calculated volumes in each group were plotted. The calculation expression was Volume (mm^3)=[Width^2 (mm^2)×Length (mm)]/2. Compound 103 was suspended in 0.5% methyl cellulose.
• with the solid line: the 5% glucose solution and PBS, X with the dotted line: the 5% glucose solution and the anti-PD1 antibody, and ∘ with the solid line: compound 103 and the anti-PD1 antibody.

Cl.Cl.N=C(N)SCc1ccccc1CSC(=N)N [Compound 1, 1,2-phenylenebis(methylene) dicarbamimidothioate dihydrochloride]
tumor growth (ratio of tumor volume to start day) [1]: can suppress tumor growth
tumor growth (tumor volume) [2]: can suppress tumor growth

c1ccc(CSC2=NCN(CC3CCCCC3)CN2)c(CSC2=NCN(CC3CCCCC3)CN2)c1 [Compound 29, 1,2-bis(((5-(cyclohexylmethyl)-1,4,5,6-tetrahydro-1,3,5-triazin-2-yl)thio)methyl)benzene]
tumor growth (tumor volume) [3]: can suppress tumor growth

Br.N#Cc1ccc(CNC(=O)c2cc(Br)ccc2CSC(=N)N)cc1 [Compound 103, 4-Bromo-2-((4-cyanobenzyl)carbamoyl)benzyl carbamimidothioate hydrobromide]
tumor growth (tumor volume) [4]: can suppress tumor growth
